For this assay, the target named is T1, stearoyl-CoA desaturase (SCD) (Rattus norvegicus, UniProt P07308).
T1 construct: The microsomes were quickly thawed and added to assay buffer so that a concentration of 0.4 mg/ml was achieved; from tissue
T1 sequence (P07308 1-358): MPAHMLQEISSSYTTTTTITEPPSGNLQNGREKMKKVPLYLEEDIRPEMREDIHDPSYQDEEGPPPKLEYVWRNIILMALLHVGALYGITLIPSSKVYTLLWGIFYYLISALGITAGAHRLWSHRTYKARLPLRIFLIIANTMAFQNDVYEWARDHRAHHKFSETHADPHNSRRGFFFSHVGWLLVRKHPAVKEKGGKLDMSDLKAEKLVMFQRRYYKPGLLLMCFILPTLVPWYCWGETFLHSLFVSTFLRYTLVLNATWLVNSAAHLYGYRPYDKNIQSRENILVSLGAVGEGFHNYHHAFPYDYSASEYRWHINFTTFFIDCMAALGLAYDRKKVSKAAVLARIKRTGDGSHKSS
Put plainly: SCD assay with rat liver microsomes ([3H]stearoyl CoA, adapted from Talamo and Bloch). The assay is classed as biochemical. The conditions noted are these: Table 2 (Example 21, procedures of Example 20); rat liver microsomes, [3H]stearoyl CoA substrate. A digest of the protocol:
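Liver microsomes came from diet-induced male Sprague Dawley rats and were used at 0.2 mg/ml final. Assay buffer was Tris pH 7.2 with NADH, ATP, CoA, MgCl2 and 0.1% BSA. Compounds were preincubated 30 min, then reacted 45 min at room temperature with [3H]stearoyl-CoA; after TCA stop and Bio-Bead cleanup, supernatant radioactivity was counted by scintillation.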
(In general: Liver microsomes are a subcellular fraction often used to study metabolism.)

Each structure is given as a SMILES string. pIC50: −log10 of the molar value.

Regarding `Cc1ccccc1OCCCn1cnc2ccc(NC(=O)CO)cc2c1=O` [compound 53, 2-hydroxy-N-(4-oxo-3-(3-(o-tolyloxy)propyl)-3,4-dihydroquinazolin-6-yl)acetamide], the negative logarithm of the IC50 (pIC50) – broadly, −log10 of the IC50, conventionally taken in molar units – was 7.00.
The result for `O=C(Nc1ccc2ncn(CCCCOc3cc(Cl)ccc3Cl)c(=O)c2c1)OCc1ccccc1` [compound 54, benzyl 3-(4-(2,5-dichlorophenoxy)butyl)-4-oxo-3,4-dihydroquinazolin-6-ylcarbamate] reads 6.82.
Then `O=C(CO)Nc1ccc2ncn(CCCCOc3cc(Cl)ccc3Cl)c(=O)c2c1` [compound 55, N-(3-(4-(2,5-dichlorophenoxy)butyl)-4-oxo-3,4-dihydroquinazolin-6-yl)-2-hydroxyacetamide], with 6.62; and `O=C(CO)Nc1ccc2ncn(CCCc3ccccc3Cl)c(=O)c2c1` [compound 56, N-(3-(3-(2-chlorophenyl)propyl)-4-oxo-3,4-dihydroquinazolin-6-yl)-2-hydroxyacetamide], with 6.37; and `O=C(Nc1ccc2ncn(CCOc3ccccc3Cl)c(=O)c2c1)OCc1ccccc1` [compound 57, benzyl 3-(2-(2-chlorophenoxy)ethyl)-4-oxo-3,4-dihydroquinazolin-6-ylcarbamate], with 6.74.
Then `O=C(CO)Nc1ccc2ncn(CCOc3ccccc3Cl)c(=O)c2c1` [compound 58, N-(3-(2-(2-chlorophenoxy)ethyl)-4-oxo-3,4-dihydroquinazolin-6-yl)-2-hydroxyacetamide], with 6.47; and `O=C(Nc1ccc2ncn(CCCOc3ccccc3Cl)c(=O)c2c1)OCc1ccccc1` [compound 59, benzyl 3-(3-(2-chlorophenoxy)propyl)-4-oxo-3,4-dihydroquinazolin-6-ylcarbamate], with 7.35; and `O=C(CO)Nc1ccc2ncn(CCCOc3ccccc3Cl)c(=O)c2c1` [compound 60, N-(3-(3-(2-chlorophenoxy)propyl)-4-oxo-3,4-dihydroquinazolin-6-yl)-2-hydroxyacetamide], with 6.35.
`O=C(CO)Nc1ccc2ncn(Cc3cccc(COc4cc(Cl)ccc4Cl)c3)c(=O)c2c1` [compound 61, N-(3-(3-((2,5-dichlorophenoxy)methyl)benzyl)-4-oxo-3,4-dihydroquinazolin-6-yl)-2-hydroxyacetamide]: the pIC50 is 6.31.
Take `O=C(Nc1ccc2ncn(Cc3cccc(COc4cc(Cl)ccc4Cl)c3)c(=O)c2c1)OCc1ccccc1` [compound 62, benzyl 3-(3-((2,5-dichlorophenoxy)methyl)benzyl)-4-oxo-3,4-dihydroquinazolin-6-ylcarbamate]: the pIC50 is 6.21.
Then `O=C(CO)Nc1ccc2c(=O)n(CCOc3ccccc3Cl)cnc2c1` [compound 63, N-(3-(2-(2-chlorophenoxy)ethyl)-4-oxo-3,4-dihydroquinazolin-7-yl)-2-hydroxyacetamide], with 5.31.
Then `O=C(CO)Nc1ccc2ncn(CCCCCOc3cc(Cl)ccc3Cl)c(=O)c2c1` [compound 64, N-(3-(5-(2,5-dichlorophenoxy)pentyl)-4-oxo-3,4-dihydroquinazolin-6-yl)-2-hydroxyacetamide], with 5.89; and `O=C(CO)Nc1ccc2ncn(CCCOc3cccc(Cl)c3Cl)c(=O)c2c1` [compound 65, N-(3-(3-(2,3-dichlorophenoxy)propyl)-4-oxo-3,4-dihydroquinazolin-6-yl)-2-hydroxyacetamide], with 6.19; and `O=C(CO)Nc1ccc2ncn(CCCOc3cc(C(F)(F)F)ccc3Cl)c(=O)c2c1` [compound 66, N-(3-(3-(2-chloro-5-(trifluoromethyl)phenoxy)propyl)-4-oxo-3,4-dihydroquinazolin-6-yl)-2-hydroxyacetamide], with 4.96.
The result for `O=C(CO)Nc1ccc2ncn(CCNC(=O)c3cc(Cl)ccc3Cl)c(=O)c2c1` [compound 67, 2,5-dichloro-N-(2-(6-(2-hydroxyacetamido)-4-oxoquinazolin-3(4H)-yl)ethyl)benzamide] reads 4.68.
`O=C(CO)Nc1ccc2ncn(CCCOc3ccccc3)c(=O)c2c1` [compound 68, 2-hydroxy-N-(4-oxo-3-(3-phenoxypropyl)-3,4-dihydroquinazolin-6-yl)acetamide] had a pIC50 of 4.64.
Then `O=C(CO)Nc1ccc2ncn(CCNC(=O)c3ccccc3C(F)(F)F)c(=O)c2c1` [compound 69, N-(2-(6-(2-hydroxyacetamido)-4-oxoquinazolin-3(4H)-yl)ethyl)-2-(trifluoromethyl)benzamide], with 5.28; and `O=C(CO)Nc1ccc2ncn(CCCOc3ccc(Cl)cc3)c(=O)c2c1` [compound 70, N-(3-(3-(4-chlorophenoxy)propyl)-4-oxo-3,4-dihydroquinazolin-6-yl)-2-hydroxyacetamide], with 5.51.
The result for `O=C(CO)Nc1ccc2ncn(CCNS(=O)(=O)c3cc(Cl)ccc3Cl)c(=O)c2c1` [compound 71, N-(3-(2-(2,5-dichlorophenylsulfonamido)ethyl)-4-oxo-3,4-dihydroquinazolin-6-yl)-2-hydroxyacetamide] reads 4.82; that for `O=C(CO)Nc1ccc2ncn(CCCNS(=O)(=O)c3cc(Cl)ccc3Cl)c(=O)c2c1` [compound 72, N-(3-(3-(2,5-dichlorophenylsulfonamido)propyl)-4-oxo-3,4-dihydroquinazolin-6-yl)-2-hydroxyacetamide], 4.68.
The result for `O=C(CO)Nc1ccc2ncn(CCCNS(=O)(=O)c3ccccc3C(F)(F)F)c(=O)c2c1` [compound 73, 2-hydroxy-N-(4-oxo-3-(3-(2-(trifluoromethyl)phenylsulfonamido)propyl)-3,4-dihydroquinazolin-6-yl)acetamide] reads 4.85; that for `O=C(CO)Nc1ccc2ncn(CCOc3ccc(Cl)cc3)c(=O)c2c1` [compound 74, N-(3-(2-(4-chlorophenoxy)ethyl)-4-oxo-3,4-dihydroquinazolin-6-yl)-2-hydroxyacetamide], 4.77; that for `O=C(CO)Nc1ccc2ncn(CCOc3cccc(Cl)c3)c(=O)c2c1` [compound 75, N-(3-(2-(3-chlorophenoxy)ethyl)-4-oxo-3,4-dihydroquinazolin-6-yl)-2-hydroxyacetamide], 5.82.
With `Cc1ccccc1OCC(O)Cn1cnc2ccc(NC(=O)CO)cc2c1=O` (centres unmarked) [compound 76, 2-hydroxy-N-(3-(2-hydroxy-3-(o-tolyloxy)propyl)-4-oxo-3,4-dihydroquinazolin-6-yl)acetamide], the pIC50 is 5.40.
In turn, `O=C(Nc1cnc2ncn(Cc3ccc(Cl)c(Cl)c3)c(=O)c2c1)OCc1ccccc1` [compound 77, benzyl 3-(3,4-dichlorobenzyl)-4-oxo-3,4-dihydropyrido[2,3-d]pyrimidin-6-ylcarbamate] had a pIC50 of 6.44.
Then `O=C(CO)Nc1cnc2ncn(Cc3ccc(Cl)c(Cl)c3)c(=O)c2c1` [compound 78, N-(3-(3,4-dichlorobenzyl)-4-oxo-3,4-dihydropyrido[2,3-d]pyrimidin-6-yl)-2-hydroxyacetamide], with 6.74; and `O=C(CO)Nc1cnc2ncn(Cc3ccc(Cl)cc3)c(=O)c2c1` [compound 79, N-(3-(4-chlorobenzyl)-4-oxo-3,4-dihydropyrido[2,3-d]pyrimidin-6-yl)-2-hydroxyacetamide], with 5.77; and `O=C(Nc1cnc2ncn(Cc3ccc(Cl)cc3)c(=O)c2c1)OCc1ccccc1` [compound 80, benzyl 3-(4-chlorobenzyl)-4-oxo-3,4-dihydropyrido[2,3-d]pyrimidin-6-ylcarbamate], with 7.11.
Then `O=C(NCCO)c1ccc2ncn(Cc3ccc(Cl)c(Cl)c3)c(=O)c2c1` [compound 81, 3-(3,4-dichlorobenzyl)-N-(2-hydroxyethyl)-4-oxo-3,4-dihydroquinazoline-6-carboxamide], with 5.57; and `COCCNC(=O)c1ccc2ncn(Cc3ccc(Cl)c(Cl)c3)c(=O)c2c1` [compound 82, 3-(3,4-dichlorobenzyl)-N-(2-methoxyethyl)-4-oxo-3,4-dihydroquinazoline-6-carboxamide], with 5.82; and `COCCNC(=O)c1ccc2c(=O)n(Cc3ccc(Cl)c(Cl)c3)cnc2c1` [compound 83, 3-(3,4-dichlorobenzyl)-N-(2-methoxyethyl)-4-oxo-3,4-dihydroquinazoline-7-carboxamide], with 6.24.
The result for `O=C(NCCO)c1ccc2c(=O)n(Cc3ccc(Cl)c(Cl)c3)cnc2c1` [compound 84, 3-(3,4-dichlorobenzyl)-N-(2-hydroxyethyl)-4-oxo-3,4-dihydroquinazoline-7-carboxamide] reads 6.20; that for `O=C(NCc1ccccc1)c1ccc2c(=O)n(Cc3ccc(Cl)c(Cl)c3)cnc2c1` [compound 85, N-benzyl-3-(3,4-dichlorobenzyl)-4-oxo-3,4-dihydroquinazoline-7-carboxamide], 6.02; that for `O=C(NCCCO)c1ccc2c(=O)n(Cc3ccc(Cl)c(Cl)c3)cnc2c1` [compound 86, 3-(3,4-dichlorobenzyl)-N-(3-hydroxypropyl)-4-oxo-3,4-dihydroquinazoline-7-carboxamide], 5.11.
Regarding `O=C(NCCOc1ccccc1)c1ccc2c(=O)n(Cc3ccc(Cl)c(Cl)c3)cnc2c1` [compound 87, 3-(3,4-dichlorobenzyl)-4-oxo-N-(2-phenoxyethyl)-3,4-dihydroquinazoline-7-carboxamide], the pIC50 is 5.77.

The values are drawn from patent US20090105283A1, “3-HYDROQUINAZOLIN-4-ONE DERIVATIVES FOR USE AS STEAROYL CoA DESATURASE INHIBITORS” (priority 2007, published 2009).
